# Test system: glucocorticoid receptor function
# Test: one or more of the above assays (GR binding and glucocorticoid receptor cell assays: aromatase, IL-6, TAT, MMTV-Luc, IL-8, ICAM-Luc)
# Format: cell-based
# Conditions: assay not specified per compound
row,Structure (SMILES),activity as agonists of the glucocorticoid receptor function in one or more of the above assays
1,"COc1ccc(-c2cncnc2)cc1C(C)(C)CC(O)(Cc1cc2cnccc2[nH]1)C(F)(F)F (stereo not shown) [1,1,1-Trifluoro-4-(2-methoxy-5-pyrimidin-5-ylphenyl)-4-methyl-2-(1H-pyrrolo[3,2-c]pyridin-2-ylmethyl)pentan-2-ol]",potent agonists
2,"COc1ccc(Br)cc1C(C)(C)CC(O)(Cc1cc2ccncc2[nH]1)C(F)(F)F (stereo not shown) [4-(5-Bromo-2-methoxyphenyl)-1,1,1-trifluoro-4-methyl-2-(1H-pyrrolo[2,3-c]pyridin-2-ylmethyl)pentan-2-ol]",potent agonists
3,COc1ccc(F)cc1C(C)(C)CC(O)(Cc1cc2c(C#N)cccc2[nH]1)C(F)(F)F (stereo not shown) [2-[4-(5-Fluoro-2-methoxyphenyl)-2-hydroxy-4-methyl-2-trifluoromethylpentyl]-1H-indole-4-carbonitrile],potent agonists
4,"CC(C)(CC(O)(Cn1ccc2c1CCCC2=O)C(F)(F)F)c1cc(-c2cncnc2)ccc1O (stereo not shown) [1-[2-Hydroxy-4-(2-hydroxy-5-pyrimidin-5-ylphenyl)-4-methyl-2-trifluoromethylpentyl]-1,5,6,7-tetrahydroindol-4-one]",agonists
5,"CC(C)(CC(O)(Cc1cc2cnccc2[nH]1)C(C)(C)C)c1cc(Cl)cc2c1OCC2 (stereo not shown) [5-(5-Chloro-2,3-dihydrobenzofuran-7-yl)-2,2,5-trimethyl-3-(1H-pyrrolo[3,2-c]pyridin-2-ylmethyl)hexan-3-ol]",agonists
6,"CC(=O)c1ccc2[nH]c(CC(O)(CC(C)(C)c3cc(Cl)cc4c3OCC4)C(F)(F)F)cc2n1 (stereo not shown) [1-{2-[4-(5-Chloro-2,3-dihydrobenzofuran-7-yl)-2-hydroxy-4-methyl-2-trifluoromethylpentyl]-1H-pyrrolo[3,2-b]pyridin-5-yl}ethanone]",potent agonists
7,"COc1cc(F)ccc1C(C)(C)CC(O)(Cc1cc2c(C)cncc2[nH]1)C(F)(F)F (stereo not shown) [1,1,1-Trifluoro-4-(4-fluoro-2-methoxyphenyl)-4-methyl-2-(4-methyl-1H-pyrrolo[2,3-c]pyridin-2-ylmethyl)pentan-2-ol]",potent agonists
8,"CCC(C)(C)C(O)(Cc1cc2ccncc2[nH]1)CC(C)(C)c1cc(F)ccc1OC (stereo not shown) [2-(5-Fluoro-2-methoxyphenyl)-2,5,5-trimethyl-4-(1H-pyrrolo[2,3-c]pyridin-2-ylmethyl)heptan-4-ol]",agonists
9,"COc1ccc(Br)cc1C(C)(C)CC(O)(Cc1cc2cc(OC(C)C)ncc2[nH]1)C(F)(F)F (stereo not shown) [4-(5-Bromo-2-methoxyphenyl)-1,1,1-trifluoro-2-(5-isopropoxy-1H-pyrrolo[2,3-c]pyridin-2-ylmethyl)-4-methylpentan-2-ol]",potent agonists
10,"Cc1ccc(F)cc1C(C)(C)CC(O)(Cc1cc2cnccc2[nH]1)C1CC1 (stereo not shown) [2-Cyclopropyl-4-(5-fluoro-2-methylphenyl)-4-methyl-1-(1H-pyrrolo[3,2-c]pyridin-2-yl)pentan-2-ol]",agonists
11,"CC(C)(CC(O)(Cc1cc2cc(N3CCCCC3)ncc2[nH]1)C(F)(F)F)c1ccccc1 (stereo not shown) [1,1,1-Trifluoro-4-methyl-4-phenyl-2-(5-piperidin-1-yl-1H-pyrrolo[2,3-c]pyridin-2-ylmethyl)pentan-2-ol]",potent agonists
12,"Cc1cccc2[nH]c(CC(O)(CC(C)(C)c3cc(S(C)(=O)=O)cc4c3OCC4)C(F)(F)F)cc12 (stereo not shown) [1,1,1-Trifluoro-4-(5-methanesulfonyl-2,3-dihydrobenzofuran-7-yl)-4-methyl-2-(4-methyl-1H-indol-2-ylmethyl)pentan-2-ol]",potent agonists
13,"CC(C)(CC(O)(Cc1cc2cc(C#N)ncc2[nH]1)C(F)(F)F)c1cc(Cl)cc2c1OCC2 (stereo not shown) [2-[4-(5-Chloro-2,3-dihydrobenzofuran-7-yl)-2-hydroxy-4-methyl-2-trifluoromethylpentyl]-1H-pyrrolo[2,3-c]pyridine-5-carbonitrile]",potent agonists
14,"CC(C)(CC(O)(Cc1cc2ccc(C#N)cc2[nH]1)C(F)(F)F)c1cc(S(C)(=O)=O)cc2c1OCC2 (stereo not shown) [2-[2-Hydroxy-4-(5-methanesulfonyl-2,3-dihydrobenzofuran-7-yl)-4-methyl-2-trifluoromethylpentyl]-1H-indole-6-carbonitrile]",potent agonists
15,"CN(C)c1cc2cc(CC(O)(CC(C)(C)c3ccc(F)cc3O)C(F)(F)F)[nH]c2cn1 (stereo not shown) [2-[3-(5-Dimethylamino-1H-pyrrolo[2,3-c]pyridin-2-ylmethyl)-4,4,4-trifluoro-3-hydroxy-1,1-dimethylbutyl]-5-fluorophenol]",potent agonists
16,"COc1ccc(F)cc1C(C)(C)CC(O)(Cc1cc2nc(C(C)C)ncc2[nH]1)C(F)(F)F (stereo not shown) [1,1,1-Trifluoro-4-(5-fluoro-2-methoxyphenyl)-2-(2-isopropyl-5H-pyrrolo[3,2-d]pyrimidin-6-ylmethyl)-4-methylpentan-2-ol]",potent agonists

row,Structure (SMILES),activity as agonists of the glucocorticoid receptor function in one or more of the above assays
1,"CC(C)(CC(O)(Cc1cc2cc(-c3ccccc3)nnc2[nH]1)C(F)(F)F)c1cc(Cl)cc2c1OCC2 (stereo not shown) [4-(5-Chloro-2,3-dihydrobenzofuran-7-yl)-1,1,1-trifluoro-4-methyl-2-(3-phenyl-7H-pyrrolo[2,3-c]pyridazin-6-ylmethyl)pentan-2-ol]",potent agonists
2,"Cc1ccc(F)cc1C(C)(C)CC(O)(Cc1cc2cc(-c3ccccc3)ncc2[nH]1)C(C)(C)C (stereo not shown) [5-(5-Fluoro-2-methylphenyl)-2,2,5-trimethyl-3-(5-phenyl-1H-pyrrolo[2,3-c]pyridin-2-ylmethyl)hexan-3-ol]",agonists
3,Cc1ccc(F)cc1C(C)(C)CC(O)(Cc1cc2cc(-c3ccccc3)nnc2[nH]1)C(F)(F)F (stereo not shown),potent agonists
4,"Cc1c(CC(O)(CC(C)(C)c2cc(Cl)cc3c2OCC3)C(C)C)[nH]c2cnccc12 (stereo not shown) [5-(5-Chloro-2,3-dihydrobenzofuran-7-yl)-2,5-dimethyl-3-(3-methyl-1H-pyrrolo[2,3-c]pyridin-2-ylmethyl)hexan-3-ol]",agonists
5,"Cc1cncc2[nH]c(CC(O)(CC(C)(C)c3cccc(F)c3)C(F)(F)F)cc12 (stereo not shown) [1,1,1-Trifluoro-4-(3-fluorophenyl)-4-methyl-2-(4-methyl-1H-pyrrolo[2,3-c]pyridin-2-ylmethyl)pentan-2-ol]",potent agonists
6,"COc1ccc(F)cc1C(C)(C)CC(O)(Cc1cc2ccncc2[nH]1)C(C)C (stereo not shown) [5-(5-Fluoro-2-methoxyphenyl)-2,5-dimethyl-3-(1H-pyrrolo[2,3-c]pyridin-2-ylmethyl)hexan-3-ol]",agonists
7,"C[S+]([O-])c1ccc2[nH]c(CC(O)(CC(C)(C)c3cc(F)cc4c3OCC4)C(F)(F)F)cc2c1 (stereo not shown) [1,1,1-Trifluoro-4-(5-fluoro-2,3-dihydrobenzofuran-7-yl)-2-(5-methanesulfinyl-1H-indol-2-ylmethyl)-4-methylpentan-2-ol]",potent agonists
8,"COc1ccc(-c2cncnc2)cc1C(C)(C)CC(O)(Cc1cc2ccncc2[nH]1)C(F)(F)F (stereo not shown) [1,1,1-Trifluoro-4-(2-methoxy-5-pyrimidin-5-ylphenyl)-4-methyl-2-(1H-pyrrolo[2,3-c]pyridin-2-ylmethyl)pentan-2-ol]",potent agonists
9,"CCN(CC)c1cc2cc(CC(O)(CC(C)(C)c3cc(F)ccc3C)C(F)(F)F)[nH]c2cn1 (stereo not shown) [2-(5-Diethylamino-1H-pyrrolo[2,3-c]pyridin-2-ylmethyl)-1,1,1-trifluoro-4-(5-fluoro-2-methylphenyl)-4-methylpentan-2-ol]",potent agonists
10,"CC(C)(CC(O)(Cn1ccc2c1CCCC2=O)C(F)(F)F)c1cccc2c1OCC2 (stereo not shown) [1-[4-(2,3-Dihydrobenzofuran-7-yl)-2-hydroxy-4-methyl-2-trifluoromethylpentyl]-1,5,6,7-tetrahydroindol-4-one]",agonists
11,"COc1ccc(F)cc1C(C)(C)CC(O)(Cn1ccc2c1CCCC2=O)C(F)(F)F (stereo not shown) [1-[4-(5-Fluoro-2-methoxyphenyl)-2-hydroxy-4-methyl-2-trifluoromethylpentyl]-1,5,6,7-tetrahydroindol-4-one]",agonists
12,"COc1ccc(C)cc1C(C)(C)CC(O)(Cc1cc2nc(N3CCCC3)ncc2[nH]1)C(F)(F)F (stereo not shown) [1,1,1-Trifluoro-4-(2-methoxy-5-methylphenyl)-4-methyl-2-(2-pyrrolidin-1-yl-5H-pyrrolo[3,2-d]pyrimidin-6-ylmethyl)pentan-2-ol]",potent agonists
13,"COc1ccc(-c2cncnc2)cc1C(C)(C)CC(O)(Cc1cc2cc(N(C)C)ncc2[nH]1)C(F)(F)F (stereo not shown) [2-(5-Dimethylamino-1H-pyrrolo[2,3-c]pyridin-2-ylmethyl)-1,1,1-trifluoro-4-(2-methoxy-5-pyrimidin-5-ylphenyl)-4-methylpentan-2-ol]",potent agonists
14,"COc1ccc(-c2cccc(C#N)c2)cc1C(C)(C)CC(O)(Cc1cc2ccncc2[nH]1)C(F)(F)F (stereo not shown) [4′-Methoxy-3′-[4,4,4-trifluoro-3-hydroxy-1,1-dimethyl-3-(1H-pyrrolo[2,3-c]pyridin-2-ylmethyl)butyl]biphenyl-3-carbonitrile]",potent agonists
15,"Cc1ccc(F)cc1C(C)(C)CC(O)(Cc1cc2ccncc2[nH]1)C1CC1 (stereo not shown) [2-Cyclopropyl-4-(5-fluoro-2-methylphenyl)-4-methyl-1-(1H-pyrrolo[2,3-c]pyridin-2-yl)pentan-2-ol]",agonists

# — patent US8741897B2, “Glucocorticoid mimetics, methods of making them, pharmaceutical compositions and uses thereof” (Boehringer Ingelheim Pharmaceuticals Inc., priority 2003, dated 2014)
